US20020137929A1, “1 - (3-heterocyclylphenyl) isothiourea, -isourea, -guanidine and -amidine herbicidal agents” (Intellectual Property Department, BASF Aktiengesellschaft, priority 1998, published 2002)

Key:
CASOB (Sicklepod) [1] = test: Postemergence herbicidal evaluation; assay type: in vivo, Cassia obtusifolia; conditions: postemergence
In short: (§1)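 Visual 0–9 rating versus control (stand, vigor, malformation, size, chlorosis, overall appearance), taken four to five weeks post-spray. Two-week-old seedlings received roughly 0.0156–0.500 kg/ha active in acetone/water (50/50) with 0.5% TWEEN 20 via nozzle at 40 psi.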

CYPSE (Flatsedge) = test: Preemergence weed control under flooded paddy conditions; assay type: in vivo, Cyperus serotinus; conditions: rated 3-4 weeks after treatment
In short: (§2)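 Greenhouse paddy assay. Acetone/water (50/50 v/v) solutions dosed into flood water, equivalent to about 0.0313 to 0.500 kg/ha active ingredient, over seeds planted 0.5 cm deep in silt loam. Score: 0-9 visual, based on stand, vigor, malformation, size and chlorosis, 3 to 4 weeks after treatment.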

[2] = tested on: SAGPY (Arrowhead (Pygmaea)); test: as above; assay type: in vivo, Sagittaria pygmaea; conditions: rated 3-4 weeks after treatment
In short: as §2

[3] = tested on: CHEAL (Lambsquarters, Common); test: Postemergence herbicidal evaluation; assay type: in vivo, Chenopodium album; conditions: postemergence
In short: as §1

ZEAMX (Corn, Field) = test: Preemergence herbicidal evaluation; assay type: in vivo, Zea mays; conditions: rated 4-5 weeks after treatment, rating scale 0-9
In short: (§3)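 Greenhouse preemergence test: seed-soil mix sown on ~1 inch soil; aqueous acetone spray at equivalent of ~0.0156–0.500 kg/ha; greenhouse-held and watered; scored 0–9 visually at 4–5 weeks.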

CASOB (Sicklepod) [4] = test: Preemergence herbicidal evaluation; assay type: in vivo, Cassia obtusifolia; conditions: rated 4-5 weeks after treatment, rating scale 0-9
In short: as §3

[5] = tested on: GLXMAW (Soybean, Williams); test: Postemergence herbicidal evaluation; assay type: in vivo, Glycine max, (L.) Merr. cv Williams; conditions: postemergence
In short: as §1

SETVI (Foxtail, Green) = test: Postemergence herbicidal evaluation; assay type: in vivo, Setaria viridis; conditions: postemergence
In short: as §1

GALAP (Galium) [6] = test: Preemergence herbicidal evaluation; assay type: in vivo, Galium aparine; conditions: rated 4-5 weeks after treatment, rating scale 0-9
In short: as §3

AMBEL (Ragweed, Common) = test: Postemergence herbicidal evaluation; assay type: in vivo, Ambrosia artemisifolia; conditions: postemergence
In short: as §1

GALAP (Galium) [7] = test: Postemergence herbicidal evaluation; assay type: in vivo, Galium aparine; conditions: postemergence
In short: as §1

ECHCG (Barnyardgrass) = test: Postemergence herbicidal evaluation; assay type: in vivo, Echinochloa crus-galli; conditions: postemergence
In short: as §1

CYPIR (Rice Flatsedge) = test: Preemergence weed control under flooded paddy conditions; assay type: in vivo, Cyperus iria; conditions: rated 3-4 weeks after treatment
In short: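 Silt loam, seeds in top 0.5 cm; flood held 1.5-3 cm; test cpd as acetone/water 50/50 into flood water, ~0.0313-0.500 kg/ha a.i.; greenhouse 3-4 wk; visual 0-9 score vs control.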

ORYSAT (Rice, Tebonnet) = test: Postemergence herbicidal evaluation; assay type: in vivo, Oryza sativa, (L.) Tebonnet; conditions: postemergence
In short: as §1

For `Cn1c(C(F)(F)F)cc(=O)n(-c2cc(N=C3SCC(=O)N3Cc3cc(Cl)cc(Cl)c3)c(Cl)cc2F)c1=O` [Compound 150, 3-{4-Chloro-5-{[3-(3,5-dichlorobenzyl)-4-oxo-2-thiazolidinylidene]amino}-2-fluorophenyl}-1-methyl-6-(trifluoromethyl)-2,4(1H,3H)-pyrimidinedione], the “Herbicidal rating CASOB” value (CASOB (Sicklepod) [1]; rate 0.0156 kg/ha) was 1.0, the “Herbicidal rating CASOB” value (CASOB (Sicklepod) [1]; rate 0.0313 kg/ha) was 3.0 and the “Herbicidal rating CASOB” value (CASOB (Sicklepod) [1]; rate 0.0625 kg/ha) was 3.0. For the same compound, the “herbicidal effect rating, CYPSE” value (CYPSE (Flatsedge); 0.1250 kg/ha) was 9.0, the “herbicidal effect rating, CYPSE” value (CYPSE (Flatsedge); 0.2500 kg/ha) was 9.0 and the “herbicidal effect rating, SAGPY” value ([2]; 0.0313 kg/ha) was 0.0. The “herbicidal effect rating, SAGPY” value ([2]; 0.0625 kg/ha) was 2.0, the “herbicidal effect rating, SAGPY” value ([2]; 0.1250 kg/ha) was 2.0 and the “herbicidal effect rating, SAGPY” value ([2]; 0.2500 kg/ha) was 2.0. For the same compound, the “Herbicidal rating CHEAL” value ([3]; rate 0.0156 kg/ha) was 9.0, the “Herbicidal rating CHEAL” value ([3]; rate 0.0313 kg/ha) was 9.0 and the “Herbicidal rating CHEAL” value ([3]; rate 0.0625 kg/ha) was 9.0. The “Preemergence herbicidal rating ZEAMX” value (ZEAMX (Corn, Field); rate 0.0313 kg/ha) was 0.0, the “Preemergence herbicidal rating ZEAMX” value (ZEAMX (Corn, Field); rate 0.0625 kg/ha) was 1.0 and the “Preemergence herbicidal rating ZEAMX” value (ZEAMX (Corn, Field); rate 0.1250 kg/ha) was 2.0. For the same compound, the “Preemergence herbicidal rating ZEAMX” value (ZEAMX (Corn, Field); rate 0.2500 kg/ha) was 1.0, the “Preemergence herbicidal rating CASOB” value (CASOB (Sicklepod) [4]; rate 0.0313 kg/ha) was 0.0 and the “Preemergence herbicidal rating CASOB” value (CASOB (Sicklepod) [4]; rate 0.0625 kg/ha) was 2.0. The “Preemergence herbicidal rating CASOB” value (CASOB (Sicklepod) [4]; rate 0.1250 kg/ha) was 1.0, the “Preemergence herbicidal rating CASOB” value (CASOB (Sicklepod) [4]; rate 0.2500 kg/ha) was 2.0 and the “Herbicidal rating GLXMAW” value ([5]; rate 0.0156 kg/ha) was 5.0. The “Herbicidal rating GLXMAW” value ([5]; rate 0.0313 kg/ha) was 5.5, the “Herbicidal rating GLXMAW” value ([5]; rate 0.0625 kg/ha) was 6.0 and the “Herbicidal rating SETVI” value (SETVI (Foxtail, Green); rate 0.0156 kg/ha) was 1.0. The “Herbicidal rating SETVI” value (SETVI (Foxtail, Green); rate 0.0313 kg/ha) was 1.0, the “Herbicidal rating SETVI” value (SETVI (Foxtail, Green); rate 0.0625 kg/ha) was 5.0 and the “Preemergence herbicidal rating GALAP” value (GALAP (Galium) [6]; rate 0.0313 kg/ha) was 0.0. The “Preemergence herbicidal rating GALAP” value (GALAP (Galium) [6]; rate 0.0625 kg/ha) was 0.0, the “Preemergence herbicidal rating GALAP” value (GALAP (Galium) [6]; rate 0.1250 kg/ha) was 0.0 and the “Preemergence herbicidal rating GALAP” value (GALAP (Galium) [6]; rate 0.2500 kg/ha) was 2.0. The “Herbicidal rating AMBEL” value (AMBEL (Ragweed, Common); rate 0.0156 kg/ha) was 7.0, the “Herbicidal rating AMBEL” value (AMBEL (Ragweed, Common); rate 0.0313 kg/ha) was 9.0 and the “Herbicidal rating AMBEL” value (AMBEL (Ragweed, Common); rate 0.0625 kg/ha) was 9.0. The “Herbicidal rating GALAP” value (GALAP (Galium) [7]; rate 0.0156 kg/ha) was 1.0, the “Herbicidal rating GALAP” value (GALAP (Galium) [7]; rate 0.0313 kg/ha) was 2.0 and the “Herbicidal rating GALAP” value (GALAP (Galium) [7]; rate 0.0625 kg/ha) was 4.0. The “Herbicidal rating ECHCG” value (ECHCG (Barnyardgrass); rate 0.0156 kg/ha) was 2.0, the “Herbicidal rating ECHCG” value (ECHCG (Barnyardgrass); rate 0.0313 kg/ha) was 1.0 and the “Herbicidal rating ECHCG” value (ECHCG (Barnyardgrass); rate 0.0625 kg/ha) was 2.0. For the same compound, the “herbicidal effect rating, CYPIR” value (CYPIR (Rice Flatsedge); 0.0313 kg/ha) was 9.0, the “herbicidal effect rating, CYPIR” value (CYPIR (Rice Flatsedge); 0.0625 kg/ha) was 9.0 and the “herbicidal effect rating, CYPIR” value (CYPIR (Rice Flatsedge); 0.1250 kg/ha) was 9.0. For the same compound, the “herbicidal effect rating, CYPIR” value (CYPIR (Rice Flatsedge); 0.2500 kg/ha) was 9.0, the “Herbicidal rating ORYSAT” value (ORYSAT (Rice, Tebonnet); rate 0.0156 kg/ha) was 2.0 and the “Herbicidal rating ORYSAT” value (ORYSAT (Rice, Tebonnet); rate 0.0313 kg/ha) was 2.5. For the same compound, the “Herbicidal rating ORYSAT” value (ORYSAT (Rice, Tebonnet); rate 0.0625 kg/ha) was 3.0.
`Cn1c(C(F)(F)F)cc(=O)n(-c2cc(N=C3SCC(=O)N3Cc3ccc(F)cc3)c(Cl)cc2F)c1=O` [Compound 151, 3-{4-Chloro-2-fluoro-5-{[3-(p-fluorobenzyl)-4-oxo-2-thiazolidinylidene]amino}phenyl}-1-methyl-6-(trifluoromethyl)-2,4(1H,3H)-pyrimidinedione] was tested, and the “Herbicidal rating CASOB” value (CASOB (Sicklepod) [1]; rate 0.0156 kg/ha) was 2.0, the “Herbicidal rating CASOB” value (CASOB (Sicklepod) [1]; rate 0.0313 kg/ha) was 4.0 and the “Herbicidal rating CASOB” value (CASOB (Sicklepod) [1]; rate 0.0625 kg/ha) was 4.0. The “herbicidal effect rating, CYPSE” value (CYPSE (Flatsedge); 0.0625 kg/ha) was 7.0, the “herbicidal effect rating, CYPSE” value (CYPSE (Flatsedge); 0.2500 kg/ha) was 7.0 and the “herbicidal effect rating, SAGPY” value ([2]; 0.0313 kg/ha) was 0.0. The “herbicidal effect rating, SAGPY” value ([2]; 0.0625 kg/ha) was 2.0, the “herbicidal effect rating, SAGPY” value ([2]; 0.1250 kg/ha) was 8.0 and the “herbicidal effect rating, SAGPY” value ([2]; 0.2500 kg/ha) was 6.0. For the same compound, the “Herbicidal rating CHEAL” value ([3]; rate 0.0156 kg/ha) was 9.0, the “Herbicidal rating CHEAL” value ([3]; rate 0.0313 kg/ha) was 7.0 and the “Herbicidal rating CHEAL” value ([3]; rate 0.0625 kg/ha) was 9.0. The “Preemergence herbicidal rating ZEAMX” value (ZEAMX (Corn, Field); rate 0.0156 kg/ha) was 7.0, the “Preemergence herbicidal rating ZEAMX” value (ZEAMX (Corn, Field); rate 0.0313 kg/ha) was 7.0 and the “Preemergence herbicidal rating ZEAMX” value (ZEAMX (Corn, Field); rate 0.0625 kg/ha) was 7.0. For the same compound, the “Preemergence herbicidal rating ZEAMX” value (ZEAMX (Corn, Field); rate 0.1250 kg/ha) was 9.0, the “Preemergence herbicidal rating ZEAMX” value (ZEAMX (Corn, Field); rate 0.2500 kg/ha) was 9.0 and the “Preemergence herbicidal rating CASOB” value (CASOB (Sicklepod) [4]; rate 0.0156 kg/ha) was 0.0. For the same compound, the “Preemergence herbicidal rating CASOB” value (CASOB (Sicklepod) [4]; rate 0.0313 kg/ha) was 2.0, the “Preemergence herbicidal rating CASOB” value (CASOB (Sicklepod) [4]; rate 0.0625 kg/ha) was 2.0 and the “Preemergence herbicidal rating CASOB” value (CASOB (Sicklepod) [4]; rate 0.1250 kg/ha) was 9.0. For the same compound, the “Preemergence herbicidal rating CASOB” value (CASOB (Sicklepod) [4]; rate 0.2500 kg/ha) was 9.0, the “Herbicidal rating GLXMAW” value ([5]; rate 0.0156 kg/ha) was 4.0 and the “Herbicidal rating GLXMAW” value ([5]; rate 0.0313 kg/ha) was 4.5. For the same compound, the “Herbicidal rating GLXMAW” value ([5]; rate 0.0625 kg/ha) was 5.5, the “Herbicidal rating SETVI” value (SETVI (Foxtail, Green); rate 0.0156 kg/ha) was 5.0 and the “Herbicidal rating SETVI” value (SETVI (Foxtail, Green); rate 0.0313 kg/ha) was 5.0. The “Herbicidal rating SETVI” value (SETVI (Foxtail, Green); rate 0.0625 kg/ha) was 9.0, the “Preemergence herbicidal rating GALAP” value (GALAP (Galium) [6]; rate 0.0156 kg/ha) was 2.0 and the “Preemergence herbicidal rating GALAP” value (GALAP (Galium) [6]; rate 0.0313 kg/ha) was 4.0. For the same compound, the “Preemergence herbicidal rating GALAP” value (GALAP (Galium) [6]; rate 0.0625 kg/ha) was 4.0, the “Preemergence herbicidal rating GALAP” value (GALAP (Galium) [6]; rate 0.1250 kg/ha) was 9.0 and the “Preemergence herbicidal rating GALAP” value (GALAP (Galium) [6]; rate 0.2500 kg/ha) was 9.0. For the same compound, the “Herbicidal rating AMBEL” value (AMBEL (Ragweed, Common); rate 0.0156 kg/ha) was 7.0, the “Herbicidal rating AMBEL” value (AMBEL (Ragweed, Common); rate 0.0313 kg/ha) was 7.0 and the “Herbicidal rating AMBEL” value (AMBEL (Ragweed, Common); rate 0.0625 kg/ha) was 9.0. For the same compound, the “Herbicidal rating GALAP” value (GALAP (Galium) [7]; rate 0.0156 kg/ha) was 4.0, the “Herbicidal rating GALAP” value (GALAP (Galium) [7]; rate 0.0313 kg/ha) was 4.0 and the “Herbicidal rating GALAP” value (GALAP (Galium) [7]; rate 0.0625 kg/ha) was 6.0. The “Herbicidal rating ECHCG” value (ECHCG (Barnyardgrass); rate 0.0156 kg/ha) was 3.0, the “Herbicidal rating ECHCG” value (ECHCG (Barnyardgrass); rate 0.0313 kg/ha) was 3.0 and the “Herbicidal rating ECHCG” value (ECHCG (Barnyardgrass); rate 0.0625 kg/ha) was 4.0. The “herbicidal effect rating, CYPIR” value (CYPIR (Rice Flatsedge); 0.0313 kg/ha) was 0.0, the “herbicidal effect rating, CYPIR” value (CYPIR (Rice Flatsedge); 0.0625 kg/ha) was 2.0 and the “herbicidal effect rating, CYPIR” value (CYPIR (Rice Flatsedge); 0.1250 kg/ha) was 6.0. The “herbicidal effect rating, CYPIR” value (CYPIR (Rice Flatsedge); 0.2500 kg/ha) was 8.0, the “Herbicidal rating ORYSAT” value (ORYSAT (Rice, Tebonnet); rate 0.0156 kg/ha) was 2.0 and the “Herbicidal rating ORYSAT” value (ORYSAT (Rice, Tebonnet); rate 0.0313 kg/ha) was 2.5. For the same compound, the “Herbicidal rating ORYSAT” value (ORYSAT (Rice, Tebonnet); rate 0.0625 kg/ha) was 3.5.
